“And” between values parts separate entries of the source, which are not always exact repeats. Identical values can stand only once.
Columns and labels:
MST4 = MST4 (Homo sapiens, UniProt Q9P289); assay: Z'-LYTE kinase selectivity; assay type: biochemical
SRC = SRC (Homo sapiens, UniProt P12931); assay: Z'-LYTE kinase selectivity; assay type: biochemical
TAOK2 = TAOK2 (Homo sapiens, UniProt Q9UL54); assay: Z'-LYTE kinase selectivity; assay type: biochemical
JAK2 = JAK2 (Homo sapiens, UniProt O60674); assay: Z'-LYTE kinase selectivity; assay type: biochemical
CDK2 = CDK2 (Homo sapiens, UniProt P24941); assay: Z'-LYTE kinase selectivity; assay type: biochemical
ABL = ABL (Homo sapiens, UniProt P00519); assay: Z'-LYTE kinase selectivity; assay type: biochemical
Sequence of ABL (P00519 whole entry): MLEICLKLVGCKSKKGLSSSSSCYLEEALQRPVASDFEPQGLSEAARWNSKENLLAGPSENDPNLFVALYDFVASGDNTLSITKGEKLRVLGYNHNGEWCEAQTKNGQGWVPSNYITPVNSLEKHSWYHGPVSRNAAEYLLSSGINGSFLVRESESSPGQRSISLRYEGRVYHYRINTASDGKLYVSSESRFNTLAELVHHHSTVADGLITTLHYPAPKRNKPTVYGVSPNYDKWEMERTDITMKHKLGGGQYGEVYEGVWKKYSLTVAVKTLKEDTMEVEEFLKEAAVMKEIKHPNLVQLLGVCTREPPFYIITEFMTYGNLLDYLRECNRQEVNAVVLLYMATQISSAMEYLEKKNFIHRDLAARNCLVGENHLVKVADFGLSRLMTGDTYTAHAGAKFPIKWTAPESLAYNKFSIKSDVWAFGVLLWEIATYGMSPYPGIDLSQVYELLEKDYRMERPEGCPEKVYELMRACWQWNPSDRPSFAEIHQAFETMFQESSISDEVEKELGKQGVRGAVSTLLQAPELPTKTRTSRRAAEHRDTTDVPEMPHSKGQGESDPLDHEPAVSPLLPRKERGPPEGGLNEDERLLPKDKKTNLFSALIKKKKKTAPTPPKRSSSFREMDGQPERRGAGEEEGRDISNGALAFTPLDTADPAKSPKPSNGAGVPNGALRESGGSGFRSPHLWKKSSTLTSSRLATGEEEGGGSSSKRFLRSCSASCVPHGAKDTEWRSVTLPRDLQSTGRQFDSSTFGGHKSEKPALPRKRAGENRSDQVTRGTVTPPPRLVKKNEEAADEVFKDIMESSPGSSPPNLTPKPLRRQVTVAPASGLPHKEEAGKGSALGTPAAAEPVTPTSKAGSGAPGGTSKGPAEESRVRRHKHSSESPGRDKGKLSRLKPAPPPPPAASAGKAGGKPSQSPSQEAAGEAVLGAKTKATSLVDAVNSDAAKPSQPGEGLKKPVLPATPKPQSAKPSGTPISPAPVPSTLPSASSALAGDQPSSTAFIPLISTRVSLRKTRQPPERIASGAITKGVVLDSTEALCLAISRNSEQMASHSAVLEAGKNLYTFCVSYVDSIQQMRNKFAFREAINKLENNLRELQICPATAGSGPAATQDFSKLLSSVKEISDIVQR

MAPKAPK2 = MAPKAPK2 (Homo sapiens, UniProt P49137); assay: Z'-LYTE kinase selectivity; assay type: biochemical
PDK1 = PDK1 (Homo sapiens, UniProt O15530); assay: Z'-LYTE kinase selectivity; assay type: biochemical; conditions: read-out: IC50 PDK1
[1] = system: LU-01-0015 (HIP-ALK) patient derived lung-tumor xenografts; assay: LU-01-0015 patient-derived xenograft model (tumor volume, body weight); assay type: in vivo, BALB/c nude mice; conditions: for Tumor volume Mean: group mean; for Tumor volume: individual mouse, in mm³
Procedure: Female BALB/c nude mice (4–6 weeks old) were provided by Shanghai Sipple-Bikai Laboratory Animal Co., Ltd. and Beijing Vital River Laboratory Animal Technology Co., Ltd. The mice were housed in a specific pathogen-free environment under a 12 h light/dark cycle, and had free access to sterile animal feed and water.
PDX and CDX models were used for in vivo studies. Patient-derived tumors tissues were divided into about 30 mm^3 and transplanted into the right dorsal subcutis. Treatment began when the tumor size reached to 200 mm^3. The mice were randomly assignied into the corresponding dosing groups (9 mice in each group). Drugs were deliverd via daily oral for 4 weeks. Tumor size was measured periodically using a digital caliper (Cal Pro, Sylvac, Switzerland), and tumor volume was calculated as 0.5 × length × width^2. For more detailed information, please refer to Supplementary materials. All procedures and protocols of xenograft models were approved by the Institutional Animal Care and Use Committee of WuXi AppTec.
Patient-derived tumor tissue was segmented into small pieces of approximately 20–30 mm^3 and transplanted subcutaneously into the right back of mice. When the tumor volume reached 150-200 mm^3, the mice were randomly divided into corresponding groups (9 mice in each group, female). Administered by gavage once daily for 4 weeks.

INSR = INSR (Homo sapiens, UniProt P06213); assay: Z'-LYTE kinase selectivity; assay type: biochemical
Sequence of INSR (P06213 28-1382): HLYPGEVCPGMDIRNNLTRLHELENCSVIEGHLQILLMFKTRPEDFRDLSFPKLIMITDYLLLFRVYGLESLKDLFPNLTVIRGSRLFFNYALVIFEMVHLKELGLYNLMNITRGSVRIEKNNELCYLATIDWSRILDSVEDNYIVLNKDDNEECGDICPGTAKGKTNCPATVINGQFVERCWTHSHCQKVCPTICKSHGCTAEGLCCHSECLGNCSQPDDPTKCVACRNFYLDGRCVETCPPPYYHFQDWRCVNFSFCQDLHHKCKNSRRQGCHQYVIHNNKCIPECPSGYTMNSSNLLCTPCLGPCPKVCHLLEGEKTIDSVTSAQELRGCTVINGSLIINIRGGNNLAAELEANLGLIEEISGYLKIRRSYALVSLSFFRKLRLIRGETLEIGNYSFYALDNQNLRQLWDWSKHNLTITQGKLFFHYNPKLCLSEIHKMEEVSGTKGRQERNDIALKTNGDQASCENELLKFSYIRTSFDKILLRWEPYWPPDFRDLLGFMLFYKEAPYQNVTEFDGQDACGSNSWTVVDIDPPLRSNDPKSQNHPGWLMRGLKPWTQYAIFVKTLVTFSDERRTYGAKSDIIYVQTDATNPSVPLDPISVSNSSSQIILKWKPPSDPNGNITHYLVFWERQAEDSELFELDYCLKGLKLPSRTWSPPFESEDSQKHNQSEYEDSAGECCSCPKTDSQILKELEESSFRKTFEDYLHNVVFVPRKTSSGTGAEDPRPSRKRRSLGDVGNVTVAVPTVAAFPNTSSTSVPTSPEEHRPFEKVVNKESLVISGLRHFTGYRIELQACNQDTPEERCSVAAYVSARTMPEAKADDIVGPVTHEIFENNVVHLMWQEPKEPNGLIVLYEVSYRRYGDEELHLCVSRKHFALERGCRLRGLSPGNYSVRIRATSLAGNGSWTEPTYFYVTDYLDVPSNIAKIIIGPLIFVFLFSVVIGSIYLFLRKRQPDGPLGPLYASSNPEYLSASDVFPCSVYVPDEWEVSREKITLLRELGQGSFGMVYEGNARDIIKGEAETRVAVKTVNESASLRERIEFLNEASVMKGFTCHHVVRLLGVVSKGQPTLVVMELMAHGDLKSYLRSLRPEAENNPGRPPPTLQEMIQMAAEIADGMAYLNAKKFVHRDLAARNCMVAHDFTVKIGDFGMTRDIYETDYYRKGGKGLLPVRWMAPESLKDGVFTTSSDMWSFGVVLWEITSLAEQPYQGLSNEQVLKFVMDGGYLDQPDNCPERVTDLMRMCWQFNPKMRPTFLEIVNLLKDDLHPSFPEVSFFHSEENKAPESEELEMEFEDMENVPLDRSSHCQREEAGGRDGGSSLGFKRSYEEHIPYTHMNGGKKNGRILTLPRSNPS

KDR = KDR (Homo sapiens, UniProt P35968); assay: Z'-LYTE kinase selectivity; assay type: biochemical
Sequence of KDR (P35968 20-1356): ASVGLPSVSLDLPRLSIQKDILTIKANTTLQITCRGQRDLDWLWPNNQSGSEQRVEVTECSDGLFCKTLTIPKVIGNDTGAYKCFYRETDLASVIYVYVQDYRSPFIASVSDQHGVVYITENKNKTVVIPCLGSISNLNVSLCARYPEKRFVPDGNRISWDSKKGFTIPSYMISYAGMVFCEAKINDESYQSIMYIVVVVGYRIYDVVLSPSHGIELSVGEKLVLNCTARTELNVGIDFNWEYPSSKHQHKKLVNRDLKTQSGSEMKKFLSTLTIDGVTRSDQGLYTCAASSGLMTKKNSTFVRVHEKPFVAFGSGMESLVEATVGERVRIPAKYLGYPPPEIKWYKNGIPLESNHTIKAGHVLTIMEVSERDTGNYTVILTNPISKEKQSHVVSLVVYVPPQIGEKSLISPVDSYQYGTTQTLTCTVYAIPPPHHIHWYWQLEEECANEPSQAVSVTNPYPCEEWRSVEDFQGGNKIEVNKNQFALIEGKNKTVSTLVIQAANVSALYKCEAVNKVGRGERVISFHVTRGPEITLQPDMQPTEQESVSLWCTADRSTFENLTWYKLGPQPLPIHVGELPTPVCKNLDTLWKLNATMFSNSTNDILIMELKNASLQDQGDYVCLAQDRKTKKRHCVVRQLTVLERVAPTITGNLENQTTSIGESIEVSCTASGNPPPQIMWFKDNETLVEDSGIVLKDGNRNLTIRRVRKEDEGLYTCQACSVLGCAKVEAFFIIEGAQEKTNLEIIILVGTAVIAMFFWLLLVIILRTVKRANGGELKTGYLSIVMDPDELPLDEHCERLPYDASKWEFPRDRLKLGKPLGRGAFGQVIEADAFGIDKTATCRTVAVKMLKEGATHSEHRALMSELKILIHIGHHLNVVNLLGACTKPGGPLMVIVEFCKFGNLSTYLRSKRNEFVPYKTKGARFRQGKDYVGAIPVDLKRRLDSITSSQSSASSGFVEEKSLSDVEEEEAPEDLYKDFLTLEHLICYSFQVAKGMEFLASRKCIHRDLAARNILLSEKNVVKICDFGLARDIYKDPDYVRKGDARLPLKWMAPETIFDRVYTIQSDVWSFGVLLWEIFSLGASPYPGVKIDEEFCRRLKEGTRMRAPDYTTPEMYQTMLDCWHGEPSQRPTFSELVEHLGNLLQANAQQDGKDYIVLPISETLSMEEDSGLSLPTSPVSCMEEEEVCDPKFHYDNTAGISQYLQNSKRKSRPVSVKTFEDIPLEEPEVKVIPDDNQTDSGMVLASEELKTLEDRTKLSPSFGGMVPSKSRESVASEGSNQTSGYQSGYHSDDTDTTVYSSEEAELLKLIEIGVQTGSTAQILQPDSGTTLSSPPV

MAP4K4 = MAP4K4 (Homo sapiens, UniProt O95819); assay: Z'-LYTE kinase selectivity; assay type: biochemical
MINK = MINK (Homo sapiens, UniProt Q8N4C8); assay: Z'-LYTE kinase selectivity; assay type: biochemical
c-MET = c-MET (Homo sapiens, UniProt P08581); assay: Z'-LYTE kinase selectivity; assay type: biochemical
P38 alpha = P38 alpha (Homo sapiens, UniProt Q16539); assay: Z'-LYTE kinase selectivity; assay type: biochemical
Sequence of P38 alpha (Q16539 whole entry): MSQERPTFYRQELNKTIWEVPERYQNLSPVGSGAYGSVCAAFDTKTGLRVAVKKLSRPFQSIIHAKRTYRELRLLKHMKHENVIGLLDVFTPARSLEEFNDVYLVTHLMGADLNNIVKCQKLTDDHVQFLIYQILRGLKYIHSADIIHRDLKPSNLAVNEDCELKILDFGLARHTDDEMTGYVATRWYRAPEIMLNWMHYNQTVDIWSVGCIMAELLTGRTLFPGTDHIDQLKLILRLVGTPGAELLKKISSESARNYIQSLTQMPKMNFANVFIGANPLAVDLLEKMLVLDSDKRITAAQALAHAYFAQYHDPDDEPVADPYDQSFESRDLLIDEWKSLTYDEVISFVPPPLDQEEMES

PKA = PKA (Homo sapiens, UniProt P17612); assay: Z'-LYTE kinase selectivity; assay type: biochemical
[2] = 5 mg/kg PO QD×4 W, day 0 after administration
[3] = 5 mg/kg PO QD×4 W, day 7 after administration
[4] = 5 mg/kg PO QD×4 W, day 10 after administration
[5] = 5 mg/kg PO QD×4 W, day 14 after administration
[6] = 5 mg/kg PO QD×4 W, day 17 after administration
[7] = 5 mg/kg PO QD×4 W, day 21 after administration
[8] = 5 mg/kg PO QD×4 W, day 24 after administration
[9] = 5 mg/kg PO QD×4 W, day 27 after administration
[10] = 10 mg/kg PO QD×4 W, day 0 after administration
[11] = 10 mg/kg PO QD×4 W, day 3 after administration
[12] = 10 mg/kg PO QD×4 W, day 7 after administration
[13] = 10 mg/kg PO QD×4 W, day 10 after administration
[14] = 10 mg/kg PO QD×4 W, day 14 after administration
[15] = 10 mg/kg PO QD×4 W, day 17 after administration
[16] = 10 mg/kg PO QD×4 W, day 21 after administration
[17] = 10 mg/kg PO QD×4 W, day 24 after administration
[18] = 10 mg/kg PO QD×4 W, day 27 after administration

Sequence of SRC (P12931 whole entry): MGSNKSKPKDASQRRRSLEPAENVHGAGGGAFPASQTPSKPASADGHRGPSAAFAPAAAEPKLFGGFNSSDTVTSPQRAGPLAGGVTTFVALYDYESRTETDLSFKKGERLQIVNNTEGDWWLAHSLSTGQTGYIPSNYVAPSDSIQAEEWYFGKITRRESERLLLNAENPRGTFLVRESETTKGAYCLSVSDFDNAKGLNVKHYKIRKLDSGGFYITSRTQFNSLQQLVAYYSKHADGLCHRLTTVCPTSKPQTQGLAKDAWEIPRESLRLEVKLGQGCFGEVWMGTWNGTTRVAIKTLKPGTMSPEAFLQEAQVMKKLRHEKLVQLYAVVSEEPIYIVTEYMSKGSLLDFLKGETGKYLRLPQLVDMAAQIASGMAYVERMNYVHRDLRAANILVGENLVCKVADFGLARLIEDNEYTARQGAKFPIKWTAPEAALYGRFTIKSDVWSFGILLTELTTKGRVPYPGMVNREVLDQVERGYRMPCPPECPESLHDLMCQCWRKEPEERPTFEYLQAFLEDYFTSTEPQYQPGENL

COc1cc(N2CCC(N3CCN(C)CC3)CC2)ccc1Nc1ncc(Cl)c(Nc2ccccc2P(C)(C)=O)n1 [Brigatinib, reference compound]
IC50 (MST4): 1080 ± 502 nM
IC50 (SRC): 950 ± 309 nM
IC50 (TAOK2): 964 ± 48 nM
IC50 (JAK2): 680 ± 47 nM
IC50 (CDK2): 1510 ± 554 nM
IC50 (ABL): 596 ± 52 nM
IC50 (MAPKAPK2): > 10000 nM
IC50 (PDK1): > 10000 nM
Tumor volume Mean [1, 2]: 153 mm³
Tumor volume [1, 2]: 189 and 117 and 124
Tumor volume ([1]; 5 mg/kg PO QD×4 W, day 3 after administration): 172 and 123 and 114
Tumor volume Mean [1, 3]: 146 mm³
Tumor volume [1, 3]: 149 and 98
Tumor volume Mean [1, 4]: 122 mm³
Tumor volume [1, 4]: 128 and 67
Tumor volume Mean [1, 5]: 123 mm³
Tumor volume [1, 5]: 154 and 64
Tumor volume Mean [1, 6]: 146 mm³
Tumor volume [1, 6]: 177 and 96
Tumor volume Mean [1, 7]: 162 mm³
Tumor volume [1, 7]: 138 and 255
Tumor volume Mean [1, 8]: 148 mm³
Tumor volume [1, 8]: 122 and 117
Tumor volume Mean [1, 9]: 157 mm³
Tumor volume [1, 9]: 113 and 101 and 56
Tumor volume Mean [1, 10]: 149 mm³
Tumor volume [1, 10]: 229 and 201 and 134 and 173 and 152 and 164 and 80 and 99 and 111
Tumor volume Mean [1, 11]: 141 mm³
Tumor volume [1, 11]: 206 and 208 and 136 and 143 and 125 and 137 and 82 and 123 and 106
Tumor volume Mean [1, 12]: 123 mm³
Tumor volume [1, 12]: 195 and 180 and 121 and 110 and 74 and 78 and 152 and 89
Tumor volume Mean [1, 13]: 114 mm³
Tumor volume [1, 13]: 236 and 171 and 101 and 97 and 63 and 85 and 89 and 106 and 80
Tumor volume Mean [1, 14]: 108 mm³
Tumor volume [1, 14]: 204 and 172 and 98 and 118 and 60 and 84 and 74 and 89 and 71
Tumor volume Mean [1, 15]: 133 mm³
Tumor volume [1, 15]: 239 and 176 and 118 and 196 and 66 and 106 and 97 and 89
Tumor volume Mean [1, 16]: 133 mm³
Tumor volume [1, 16]: 247 and 182 and 156 and 187 and 61 and 96 and 111 and 68 and 85
Tumor volume Mean [1, 17]: 136 mm³
Tumor volume [1, 17]: 262 and 186 and 98 and 210 and 62 and 101 and 137 and 102 and 70
Tumor volume Mean [1, 18]: 152 mm³
Tumor volume [1, 18]: 332 and 197 and 131 and 249 and 47 and 95 and 163 and 85 and 70
tumor growth inhibition ([1]; LU-01-0015 and NCI-H3122 xenograft models, all P < 0.05): able to inhibit tumor growth
effect on body weight ([1]; nude mouse xenograft models (LU-01-0015, NCI-H3122), all P ≥ 0.05): no effect
IC50 (INSR): 626 ± 304 nM
IC50 (KDR): 178 ± 52 nM
IC50 (MAP4K4): 1680 ± 762 nM
IC50 (MINK): 4040 ± 2160 nM
IC50 (c-MET): 1830 ± 231 nM
IC50 (P38 alpha): > 10000 nM
IC50 (PKA): > 10000 nM
